Among the data in US7241794B2, “Nonnucleoside reverse transcriptase inhibitors” (RochePalo Alto LLC, priority 2003, dated 2007) are IC50 and melting point values, retold here.

The first data set concerns the target HIV-1 RT (Human immunodeficiency virus type 1 group M subtype B, UniProt P03366). The data set can be described thus: HIV Reverse Transcriptase Assay: Inhibitor IC50 Determination. The conditions noted are these: purified recombinant enzyme, poly(rA)/oligo(dT)16 template-primer; read-out: IC50(μM) RTI. The format is biochemical. The protocol:
HIV Reverse Transcriptase Assay: Inhibitor IC50 Determination
HIV-1 RT assay was carried out in 96-well Millipore MultiScreen MADVNOB50 plates using purified recombinant enzyme and a poly(rA)/oligo(dT)16 template-primer in a total volume of 50 μL. The assay constituents were 50 mM Tris/HCl, 50 mM NaCl, 1 mM EDTA, 6 mM MgCl2, 5 μM dTTP, 0.15 μCi [^3H] dTTP, 5 μg/ml poly (rA) pre annealed to 2.5 μg/ml oligo (dT)16 and a range of inhibitor concentrations in a final concentration of 10% DMSO. Reactions were initiated by adding 4 nM HIV-1 RT and after incubation at 37° C. for 30 min, they were stopped by the addition of 50 μl ice cold 20% TCA and allowed to precipitate at 4° C. for 30 min. The precipitates were collected by applying vacuum to the plate and sequentially washing with 3×200 μl of 10% TCA and 2×200 μl 70% EtOH. Finally, the plates were dried and radioactivity counted in a Packard TopCounter after the addition of 25 μl scintillation fluid per well. IC50'swere calculated by plotting % inhibition versus log10 inhibitor concentrations. Representative IC50 data has been included in Table 2.
As for `CCc1c(CO)nn(CC)c1Oc1cc(Cl)cc(Cl)c1` [Cpd 17, [5-(3,5-Dichloro-phenoxy)-1,4-diethyl-1H-pyrazol-3-yl]-methanol], the IC50 (in general, the concentration needed to halve the response being measured) came out at 1.66 µM.

In the case of `CCCc1c(CO)nn(CC)c1Oc1cc(Cl)cc(Cl)c1` [Cpd 22, [5-(3,5-Dichloro-phenoxy)-1-ethyl-4-propyl-1H-pyrazol-3-yl]-methanol], the IC50 came out at 1.56 µM.

In the case of `CCc1c(CCO)nn(C(C)C)c1Oc1cc(Cl)cc(Cl)c1` [Cpd 36, 2-[5-(3,5-Dichloro-phenoxy)-4-ethyl-1-isopropyl-1H-pyrazol-3-yl]-ethanol], the IC50 is 0.0383 µM.

As for `CCc1c(CNC=O)nn(C(C)C)c1Oc1cc(Cl)cc(Cl)c1` [Cpd 40, N-[5-(3,5-Dichloro-phenoxy)-4-ethyl-1-isopropyl-1H-pyrazol-3-ylmethyl]-formamide], the IC50 was 0.648 µM.

`CCc1c(CCN)nn(C(C)C)c1Oc1cc(Cl)cc(Cl)c1` [Cpd 48, 2-[5-(3,5-Dichloro-phenoxy)-4-ethyl-1-isopropyl-1H-pyrazol-3-yl]-ethylamine]: the IC50 came to 1.07 µM.

System in another data set: not given
Experiment: not given
Conditions: not given
Consider `CCn1nc(CCO)c(Cc2ccncc2)c1Oc1cc(Cl)cc(Cl)c1` [Cpd 85, 2-[5-(3,5-Dichloro-phenoxy)-1-ethyl-4-pyridin-4-ylmethyl-1H-pyrazol-3-yl]-ethanol], for which the melting point (commonly the temperature of the solid-liquid transition) was in the range of 103 to 105.8 °C.

`CCc1c(CC(=O)Nc2ccccc2)nn(CC)c1Oc1cc(Cl)cc(Cl)c1` [Cpd 86, 2-[5-(3,5-Dichloro-phenoxy)-1,4-iethyl-1H-pyrazol-3-yl]-N-phenyl-acetamide] yielded a melting point of 112.2 to 115.9 °C.

Compound `CCc1c(CC(=O)Nc2ccccc2)nn(C(C)C)c1Oc1cc(Cl)cc(Cl)c1` [Cpd 87, 2-[5-(3,5-Dichloro-phenoxy)-4-ethyl-1-isopropyl-1H-pyrazol-3-yl]-N-phenyl-acetamide] displayed a melting point of 118.9 to 120.9 °C.

In turn, `CCc1c(Cc2ncc[nH]2)nn(CC)c1Oc1cc(Cl)cc(Cl)c1` [Cpd 88, 5-(3,5-Dichloro-phenoxy)-1,4-diethyl-3-(1H-imidazol-2-ylmethyl)-1H-pyrazole] gave a melting point of 145 to 148 °C.

In turn, `CCc1c(Cc2cnc[nH]2)nn(CC)c1Oc1cc(Cl)cc(Cl)c1` [Cpd 90, 5-(3,5-Dichloro-phenoxy)-1,4-diethyl-3-(3H-imidazol-4-ylmethyl)-1H-pyrazole] displayed a melting point of 142 to 145.2 °C.

A further data set relates to HXB2-strain of HIV in MT4 cells. The data set can be described thus: Antiviral assay: protection of HIV-infected MT4 cells from cell death (MTT). The note with it: Human immunodeficiency virus 1, 120 h, MT4 cells infected with HXB2-strain of HIV, 5 days. The format is cell-based. The protocol:
Anti-HIV antiviral activity was assessed using an adaptation of the method of Pauwels et al. {Pauwels et al., 1988, J Virol Methods 20:309-321 }. The method is based on the ability of compounds to protect HIV-infected T lymphoblastoid cells (MT4 cells) from cell-death mediated by the infection. The endpoint of the assay was calculated as the concentration of compound at which the cell viability of the culture was preserved by 50% (‘50% inhibitory concentration’, IC50). The cell viability of a culture was determined by the uptake of soluble, yellow 3-[4,5-dimethylthiazol-2-yl]-2,5-diphenyltetrazolium bromide (MTT) and its reduction to a purple insoluble formazan salt. After solubilization, spectrophotometric methods were employed to measure the amount of formazan product. […]
A fresh solution of 5 mg/mL MTT was prepared in 0.01 M phosphate buffered saline, pH 7.2 and 20 microliters added to each culture. […] When the formazan deposit was fully solubilized by further mixing, the absorbance (OD) of the cultures was measured at 540 nm and 690 nm wavelength (690 nm readings were used as blanks for artifacts between wells). The percent protection for each treated culture was then calculated from the equation: […]
In the case of `CCc1c(CO)nn(CC)c1Oc1cc(Cl)cc(Cl)c1` [Cpd 17, [5-(3,5-Dichloro-phenoxy)-1,4-diethyl-1H-pyrazol-3-yl]-methanol], it took 0.0401 µM to reach half-maximal inhibition (IC50).
